“And” between values parts separate entries of the source, which are not always exact repeats. Identical values can stand only once.
melting point: ~ 196 °C and 198 °C
Structure (SMILES): COc1cc(N2CCN(C3CCN(c4ccc(F)c5cccnc45)CC3)CC2)c2ncccc2c1 (hydrate or solvate) [Form A, 6-methoxy-8-[4-(1-(5-fluoro)-quinolin-8-yl-piperidin-4-yl)-piperazin-1-yl]-quinoline]

— patent US20080119481A1, “Crystalline forms of 6-methoxy-8-[4-(1-(5-fluoro)-quinolin-8-yl-piperidin-4-yl)-piperazin-1-yl]-quinoline” (Wyeth, priority 2006, published 2008)
